Data published in the supplement of paper PMC12205070.

Legend:
Experiment in all cases: normalised number of viable cells after treatment (fraction of control); higher = more viable cells (less drug effect)
[1] = system: P8 Relapse (T-ALL xenograft cells from relapse)
Experimental: (§1)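 T-ALL PDX-derived cells (initial diagnosis or relapse samples of individual patients) co-cultured on hTERT-immortalized bone marrow MSCs in 384-well plates were treated with Cytarabine, Venetoclax, S-63845, A1331852 or FX1 (0.1 nM to 10,000 nM) for 72 h.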

[2] = system: P3 Initial (T-ALL xenograft cells from diagnosis)
Experimental: as §1

[3] = system: P1 Initial (T-ALL xenograft cells from diagnosis)
Experimental: as §1

[4] = system: P6 Relapse (T-ALL xenograft cells from relapse)
Experimental: as §1

[5] = system: P10 Relapse (T-ALL xenograft cells from relapse)
Experimental: as §1

[6] = system: P3 Relapse (T-ALL xenograft cells from relapse)
Experimental: as §1

[7] = system: P12 Relapse (T-ALL xenograft cells from relapse)
Experimental: as §1

[8] = system: P12 Initial (T-ALL xenograft cells from diagnosis)
Experimental: as §1

[9] = system: P1 Relapse (T-ALL xenograft cells from relapse)
Experimental: as §1

[10] = system: P10 Initial (T-ALL xenograft cells from diagnosis)
Experimental: as §1

[11] = system: P2 Initial (T-ALL xenograft cells from diagnosis)
Experimental: as §1

[12] = system: P8 Initial (T-ALL xenograft cells from diagnosis)
Experimental: as §1

[13] = system: P2 Relapse (T-ALL xenograft cells from relapse)
Experimental: as §1

[14] = system: P6 Initial (T-ALL xenograft cells from diagnosis)
Experimental: as §1

CC1(C)CCC(CN2CCN(c3ccc(C(=O)NS(=O)(=O)c4ccc(NCC5CCOCC5)c([N+](=O)[O-])c4)c(Oc4cnc5[nH]ccc5c4)c3)CC2)=C(c2ccc(Cl)cc2)C1 [Venetoclax]
Settings | normalised number of viable cells
[1], 0.998752 nM | 1.21
[1], 9.98752 nM | 1.24
[1], 99.8752 nM | 1.02
[1], 998.752 nM | 0.744
[1], 9987.52 nM | 0.732
[2], 0.998752 nM | 0.948
[2], 9.98752 nM | 0.925
[2], 99.8752 nM | 0.814
[2], 998.752 nM | 0.821
[2], 9987.52 nM | 0.139
[3], 0.125 nM | 1
[3], 1 nM | 0.841
[3], 12.5 nM | 0.423
[3], 100 nM | 0.345
[3], 1250 nM | 0.259
[3], 10000 nM | 0.0865
[4], 0.998752 nM | 1.31
[4], 9.98752 nM | 1.12
[4], 99.8752 nM | 0.554
[4], 998.752 nM | 0.584
[4], 9987.52 nM | 0.169
[5], 0.998752 nM | 0.866
[5], 9.98752 nM | 1.17
[5], 99.8752 nM | 0.717
[5], 998.752 nM | 0.313
[5], 9987.52 nM | 0.13
[6], 0.998752 nM | 1.18
[6], 9.98752 nM | 1.15
[6], 99.8752 nM | 1.104
[6], 998.752 nM | 0.922
[6], 9987.52 nM | 0.072
[7], 0.998752 nM | 5.7
[7], 9.98752 nM | 4.1
[7], 99.8752 nM | 4.2
[7], 998.752 nM | 4.43
[7], 9987.52 nM | 0.845
[8], 0.998752 nM | 1.15
[8], 9.98752 nM | 1.21
[8], 99.8752 nM | 0.923
[8], 998.752 nM | 0.978
[8], 9987.52 nM | 0.0715
[9], 0.125 nM | 1.02
[9], 1 nM | 0.911
[9], 12.5 nM | 0.504
[9], 100 nM | 0.781
[9], 1250 nM | 0.352
[9], 10000 nM | 0.694
[10], 0.998752 nM | 1.39
[10], 9.98752 nM | 1.41
[10], 99.8752 nM | 0.954
[10], 998.752 nM | 0.665
[10], 9987.52 nM | 0.21
[11], 0.998752 nM | 1.58
[11], 9.98752 nM | 1.09
[11], 99.8752 nM | 0.725
[11], 998.752 nM | 0.56
[11], 9987.52 nM | 0.514
[12], 0.998752 nM | 2.58
[12], 9.98752 nM | 2.56
[12], 99.8752 nM | 2.09
[12], 998.752 nM | 1.89
[12], 9987.52 nM | 2.3
[13], 0.998752 nM | 1.16
[13], 9.98752 nM | 1.37
[13], 99.8752 nM | 1.19
[13], 998.752 nM | 0.933
[13], 9987.52 nM | 0.412
[14], 0.998752 nM | 1.17
[14], 9.98752 nM | 0.743
[14], 99.8752 nM | 0.5415
[14], 998.752 nM | 0.355
[14], 9987.52 nM | 0.269
